Laboratory results as given in PubChem BioAssay (NCI).
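Assay format: 96-well plates, 48-hour exposure. TGI marks complete inhibition of growth.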

Tests used:
Test in all cases: NCI tumour cell line growth inhibition, 48 h
[1] = test system: DLD-1 colon
[2] = test system: HL-60(TB) leukemia
[3] = test system: SW-620 colon
[4] = test system: CCRF-CEM leukemia
[5] = test system: SNB-78 CNS
[6] = test system: RXF 393 renal
[7] = test system: COLO 205 colon
[8] = test system: NCI-H23 lung
[9] = test system: NCI-H460 lung
[10] = test system: SR leukemia
[11] = test system: U251 CNS
[12] = test system: HCC-2998 colon
[13] = test system: HT29 colon
[14] = test system: SK-MEL-2 melanoma
[15] = test system: NCI-H522 lung
[16] = test system: HOP-62 NSCLC
[17] = test system: KM20L2 colon
[18] = test system: HOP-18 NSCLC
[19] = test system: SN12C renal
[20] = test system: RXF-631 renal
[21] = test system: DMS 273 small cell lung
[22] = test system: IGROV1 ovarian
[23] = test system: HCT-15 colon
[24] = test system: OVCAR-5 ovarian
[25] = test system: UO-31 renal
[26] = test system: LXFL 529 NSCLC
[27] = test system: 786-0 renal
[28] = test system: OVCAR-3 ovarian
[29] = test system: OVCAR-4 ovarian
[30] = test system: ACHN renal
[31] = test system: MALME-3M melanoma
[32] = test system: A549 NSCLC
[33] = test system: TK-10 renal
[34] = test system: EKVX NSCLC
[35] = test system: OVCAR-8 ovarian
[36] = test system: M14 melanoma
[37] = test system: SK-OV-3 ovarian
[38] = test system: SF-539 CNS
[39] = test system: UACC-257 melanoma
[40] = test system: UACC-62 melanoma
[41] = test system: LOX IMVI melanoma
[42] = test system: NCI-H226 lung
[43] = test system: HCT-116 colon
[44] = test system: K-562 leukemia
[45] = test system: KM12 colon
[46] = test system: M19-MEL melanoma
[47] = test system: A498 renal
[48] = test system: DMS 114 small cell lung
[49] = test system: SF-268 CNS
[50] = test system: SK-MEL-28 melanoma
[51] = test system: SNB-19 CNS
[52] = test system: MOLT-4 leukemia
[53] = test system: SK-MEL-5 melanoma
[54] = test system: SNB-75 CNS
[55] = test system: HOP-92 NSCLC
[56] = test system: RPMI-8226 leukemia
[57] = test system: CAKI-1 renal
[58] = test system: XF 498 CNS
[59] = test system: SF-295 CNS
[60] = test system: P388 leukemia
[61] = test system: MCF7 breast
[62] = test system: SN12K1 renal
[63] = test system: P388/ADR leukemia
[64] = test system: NCI/ADR-RES ovarian

Compound `O=c1ccnc2c1ccc1[nH]cccc12` has a TGI [1] of over 100 µM, a TGI [2] of over 100 µM and a TGI [3] of over 100 µM. The TGI [4] was over 100 µM, the TGI [5] was over 100 µM and the TGI [6] was over 100 µM. The TGI [7] was over 100 µM, the TGI [8] was over 100 µM and the TGI [9] was over 100 µM. It also gave a TGI [10] of over 100 µM, a TGI [11] of over 100 µM and a TGI [12] of over 100 µM. The TGI [13] was over 100 µM, the TGI [14] was over 100 µM and the TGI [15] was over 100 µM. For the same compound, the TGI [16] was over 100 µM, the TGI [17] was over 100 µM and the TGI [18] was over 100 µM. The TGI [19] was over 100 µM, the TGI [20] was over 100 µM and the TGI [21] was over 100 µM. The TGI [22] was over 100 µM, the TGI [23] was over 100 µM and the TGI [24] was over 100 µM. It also gave a TGI [25] of over 100 µM, a TGI [26] of over 100 µM and a TGI [27] of over 100 µM. For the same compound, the TGI [28] was over 100 µM, the TGI [29] was over 100 µM and the TGI [30] was over 100 µM. For the same compound, the TGI [31] was over 100 µM, the TGI [32] was over 100 µM and the TGI [33] was over 100 µM. For the same compound, the TGI [34] was over 100 µM, the TGI [35] was over 100 µM and the TGI [36] was over 100 µM. The TGI [37] was over 100 µM, the TGI [38] was over 100 µM and the TGI [39] was over 100 µM. The TGI [40] was over 100 µM, the TGI [41] was over 100 µM and the TGI [42] was over 100 µM. For the same compound, the TGI [43] was over 100 µM, the TGI [44] was over 100 µM and the TGI [45] was over 100 µM. It also gave a TGI [46] of over 100 µM, a TGI [47] of over 100 µM and a TGI [48] of over 100 µM. It also gave a TGI [49] of over 100 µM, a TGI [50] of over 100 µM and a TGI [51] of over 100 µM. For the same compound, the TGI [52] was over 100 µM, the TGI [53] was over 100 µM and the TGI [54] was over 100 µM.
Work on `COc1ccc(C(=O)OC2C=COC(C)C2OC(=O)c2ccc(OC)cc2)cc1` (centres undefined) yielded a TGI [1] of over 52.8 µM, a TGI [2] of 38 µM and a TGI [3] of 35.1 µM. The TGI [4] was 52.4 µM, the TGI [5] was over 100 µM and the TGI [55] was 37.1 µM. The TGI [6] was 20.9 µM, the TGI [7] was over 100 µM and the TGI [56] was 47.2 µM. The TGI [8] was 36.1 µM, the TGI [9] was over 100 µM and the TGI [10] was 61.9 µM. For the same compound, the TGI [11] was 97.9 µM, the TGI [12] was over 100 µM and the TGI [13] was 62.4 µM. The TGI [14] was 43.2 µM, the TGI [15] was 30.6 µM and the TGI [16] was over 100 µM. The TGI [17] was over 77.1 µM, the TGI [18] was over 61.1 µM and the TGI [19] was over 64.5 µM. The TGI [20] was 81.3 µM, the TGI [21] was 73.6 µM and the TGI [22] was over 83.6 µM. It also gave a TGI [23] of 33 µM, a TGI [24] of over 100 µM and a TGI [25] of over 100 µM. For the same compound, the TGI [26] was 28.1 µM, the TGI [27] was over 86.6 µM and the TGI [57] was over 100 µM. For the same compound, the TGI [28] was 32.3 µM, the TGI [29] was over 63.2 µM and the TGI [30] was over 100 µM. The TGI [31] was over 47.1 µM, the TGI [58] was over 61.8 µM and the TGI [32] was over 100 µM. It also gave a TGI [59] of over 100 µM, a TGI [33] of over 100 µM and a TGI [34] of over 100 µM. For the same compound, the TGI [35] was over 73.7 µM, the TGI [36] was 35.9 µM and the TGI [37] was over 100 µM. For the same compound, the TGI [38] was 33.6 µM, the TGI [39] was over 72.4 µM and the TGI [40] was 37.7 µM. For the same compound, the TGI [41] was 29.8 µM, the TGI [42] was over 100 µM and the TGI [43] was 21.8 µM. The TGI [44] was 63.9 µM, the TGI [45] was 40.2 µM and the TGI [46] was over 100 µM. For the same compound, the TGI [47] was over 100 µM, the TGI [48] was 37.1 µM and the TGI [49] was 44.7 µM. For the same compound, the TGI [50] was 33.2 µM, the TGI [51] was over 100 µM and the TGI [52] was 56 µM. For the same compound, the TGI [53] was 32.1 µM and the TGI [54] was 51.7 µM.
`Nc1ncn(C2C=C(CO)C(O)C2O)c(=O)n1` (centres undefined) gave a TGI [1] of over 100 µM, a TGI [2] of over 100 µM and a TGI [3] of over 100 µM. For the same compound, the TGI [5] was over 100 µM, the TGI [6] was over 100 µM and the TGI [7] was 74.2 µM. It also gave a TGI [56] of over 100 µM, a TGI [9] of over 100 µM and a TGI [10] of over 100 µM. The TGI [11] was over 100 µM, the TGI [12] was over 100 µM and the TGI [14] was over 100 µM. It also gave a TGI [15] of over 100 µM, a TGI [16] of over 100 µM and a TGI [17] of over 100 µM. It also gave a TGI [18] of over 100 µM, a TGI [19] of over 100 µM and a TGI [20] of over 100 µM. The TGI [21] was over 100 µM, the TGI [22] was over 100 µM and the TGI [23] was over 100 µM. For the same compound, the TGI [25] was over 100 µM, the TGI [26] was over 100 µM and the TGI [27] was over 100 µM. It also gave a TGI [57] of over 100 µM, a TGI [28] of over 100 µM and a TGI [29] of over 100 µM. It also gave a TGI [30] of over 100 µM, a TGI [31] of over 100 µM and a TGI [32] of over 100 µM. The TGI [33] was over 100 µM, the TGI [34] was over 100 µM and the TGI [35] was over 100 µM. The TGI [36] was over 100 µM, the TGI [37] was over 100 µM and the TGI [38] was over 100 µM. It also gave a TGI [39] of over 100 µM, a TGI [40] of over 100 µM and a TGI [42] of over 100 µM. It also gave a TGI [43] of over 100 µM, a TGI [44] of over 100 µM and a TGI [45] of over 100 µM. The TGI [46] was over 100 µM, the TGI [47] was over 100 µM and the TGI [49] was over 100 µM. It also gave a TGI [50] of over 100 µM, a TGI [51] of over 100 µM and a TGI [52] of over 100 µM. For the same compound, the TGI [53] was over 100 µM and the TGI [54] was over 100 µM.
`COC(=O)c1ccc(N=NN(C)COc2ccc([N+](=O)[O-])cc2)cc1` showed a TGI [1] of over 100 µM, a TGI [2] of 52.5 µM and a TGI [3] of over 100 µM. For the same compound, the TGI [4] was over 100 µM, the TGI [5] was over 100 µM and the TGI [55] was over 100 µM. The TGI [6] was over 100 µM, the TGI [7] was over 100 µM and the TGI [56] was over 95.3 µM. The TGI [8] was over 100 µM, the TGI [60] was over 100 µM and the TGI [9] was over 100 µM. For the same compound, the TGI [11] was over 100 µM, the TGI [12] was over 100 µM and the TGI [13] was over 100 µM. The TGI [14] was over 100 µM, the TGI [15] was over 100 µM and the TGI [16] was over 100 µM. The TGI [17] was over 100 µM, the TGI [19] was over 100 µM and the TGI [21] was over 100 µM. For the same compound, the TGI [22] was over 100 µM, the TGI [23] was over 100 µM and the TGI [24] was over 100 µM. The TGI [25] was over 100 µM, the TGI [57] was over 100 µM and the TGI [28] was over 100 µM. For the same compound, the TGI [29] was over 100 µM, the TGI [61] was over 100 µM and the TGI [31] was over 100 µM. It also gave a TGI [58] of over 100 µM, a TGI [32] of over 100 µM and a TGI [59] of over 100 µM. For the same compound, the TGI [34] was over 100 µM, the TGI [35] was over 100 µM and the TGI [37] was over 100 µM. The TGI [38] was over 100 µM, the TGI [39] was over 100 µM and the TGI [62] was over 100 µM. The TGI [40] was over 100 µM, the TGI [41] was over 100 µM and the TGI [42] was over 100 µM. The TGI [43] was over 100 µM, the TGI [63] was over 100 µM and the TGI [44] was over 100 µM. The TGI [45] was over 100 µM, the TGI [46] was over 100 µM and the TGI [47] was over 100 µM. The TGI [48] was over 100 µM, the TGI [49] was over 100 µM and the TGI [50] was over 100 µM. It also gave a TGI [51] of over 100 µM, a TGI [64] of over 100 µM and a TGI [52] of over 100 µM. For the same compound, the TGI [53] was over 100 µM and the TGI [54] was over 100 µM.
